Measurements from patent publication US20180200315A1, “CANNABINOID AND CAFFEINE EMULSIFICATIONS” (priority 2016, published 2018).

Experiment: Emulsifier experiments with coconut oils and water (Example 2)
Assay type: physicochemical
Settings: tested as emulsifying agents; solid and liquid (MCT) coconut oils
Procedure: Several experiments were run using several different emulsifiers and combinations of different coconut oils: solid and liquid (MCT). (Note: liquid MCT is coconut oil that has medium chain triglyceride). Guar gum, lecithin, and cyclodextrin were tested as emulsifying agents and provided good results.

Substance: cyclodextrin
- emulsification of the oil and water: good results
